Tests used:
[1] = target: TB IleRS (M. tuberculosis isoleucyl-tRNA synthetase) (Mycobacterium tuberculosis, UniProt P9WFV3); assay: tRNA charging (aminoacylation) assay, sensitivity of TB IleRS to PMA; format: biochemical; settings: concentrations of up to 250 μM
Procedure: The sensitivity of the TB IleRS for the drug pseudomonic acid A (PMA; a specific inhibitor of some prokaryotic IleRS enzymes) was tested.
The conditions of the charging assay were as follows: At time zero, 10 μl of crude extract or purified protein was added to a reaction mixture containing 50 mM HEPES, pH 7.5, 8 mM MgCl2, 20 μM tritiated isoleucine (New England Nuclear) with a specific activity of 2200 cpm/pmol, 10 mM KF, 4 mM ATP, and 0.1 mM total tRNA from either E. coli (Sigma) or yeast (S. cerevisiae, Boehringer-Mannheim Biochemicals). At various times, 10-20 μl of the reaction were withdrawn, spotted onto Whatman 3 MM cellolose filter diskettes, and the reaction was quenched by placing the filters in 5% ice cold TCA (trichloroacetic acid). Diskettes were washed three times with ice cold 5% TCA, once with 5% ice cold ethanol, once with ether, and air dried. The amount of [^3 H]-isoleucine incorporated into tRNA bound to the filter was determined by scintillation counting in 5 mls Betafluor (Packard 1600 TR scintillation counter).

CC[C@H](C)[C@H](N)C(=O)O = assay: cells, lysate or membranes named; settings: pH 7.5

Chain of TB IleRS (M. tuberculosis isoleucyl-tRNA synthetase) (P9WFV3 2-1032): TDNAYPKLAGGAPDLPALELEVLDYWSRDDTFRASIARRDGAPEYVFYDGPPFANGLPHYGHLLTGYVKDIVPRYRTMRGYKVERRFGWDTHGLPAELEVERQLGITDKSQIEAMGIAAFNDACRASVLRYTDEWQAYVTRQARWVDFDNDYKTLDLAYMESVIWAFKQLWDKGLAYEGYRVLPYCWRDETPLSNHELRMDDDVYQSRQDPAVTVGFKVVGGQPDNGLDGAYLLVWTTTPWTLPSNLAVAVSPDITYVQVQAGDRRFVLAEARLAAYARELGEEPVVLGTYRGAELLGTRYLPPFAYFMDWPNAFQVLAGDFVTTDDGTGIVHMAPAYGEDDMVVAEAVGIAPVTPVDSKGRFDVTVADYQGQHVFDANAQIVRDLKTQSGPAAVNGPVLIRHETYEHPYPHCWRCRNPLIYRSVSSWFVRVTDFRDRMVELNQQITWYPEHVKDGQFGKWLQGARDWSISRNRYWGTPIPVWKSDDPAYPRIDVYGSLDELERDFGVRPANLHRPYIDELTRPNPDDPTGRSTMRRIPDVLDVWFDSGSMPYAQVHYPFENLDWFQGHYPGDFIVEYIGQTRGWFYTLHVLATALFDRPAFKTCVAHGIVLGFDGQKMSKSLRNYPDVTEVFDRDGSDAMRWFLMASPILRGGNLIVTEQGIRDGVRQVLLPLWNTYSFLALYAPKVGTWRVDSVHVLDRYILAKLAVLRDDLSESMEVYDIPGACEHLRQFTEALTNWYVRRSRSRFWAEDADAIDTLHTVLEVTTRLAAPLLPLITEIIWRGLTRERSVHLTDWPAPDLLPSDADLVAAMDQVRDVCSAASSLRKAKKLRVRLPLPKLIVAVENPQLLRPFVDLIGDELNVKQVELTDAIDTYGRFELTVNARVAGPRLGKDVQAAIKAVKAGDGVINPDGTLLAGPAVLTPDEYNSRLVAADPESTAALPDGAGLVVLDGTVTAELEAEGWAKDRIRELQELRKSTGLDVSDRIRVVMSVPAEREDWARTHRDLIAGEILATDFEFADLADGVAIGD

| Compound | inhibition of the charging activity of the enzyme [1] | Km (CC[C@H](C)[C@H](N)C(=O)O) [µM] |
| --- | --- | --- |
| C/C(=C\C(=O)OCCCCCCCCC(=O)O)C[C@@H]1OC[C@H](C[C@@H]2O[C@H]2[C@@H](C)[C@H](C)O)[C@@H](O)[C@H]1O [PMA, pseudomonic acid A] | did not inhibit | – |
| purified TB GST-IleRS fusion protein with or without thrombin cleavage (Mycobacterium tuberculosis H37Rv) | – | 1.1 ± 0.2 |
